Experimental data as given in PMC6689975, “Novel Cell Wall Antifungals Reveal a Special Synergistic Activity in pbr1 Mutants Resistant to the Glucan Synthesis Antifungals Papulacandins and Echinocandins” (Frontiers in Microbiology, 2019).
Values after ≈ are worked out from the molar mass of the structure shown.

Tested on: Candida albicans C. a.^g (Table 6)
Assay: microbe, parasite or virus in culture
Design: species or system yeast; micro tube dilution MIC in YES (± 1.2 M sorbitol), complete growth inhibition by turbidity
Conditions: 48 h, read-out: MIC
In short: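 Broth microdilution in YEPD, YES or these media with 1.2 M sorbitol; early log-phase cells at 2 X 10^6 cells/ml exposed to compound (up to 200 μg/ml, 2% DMSO final) at 30°C. Turbidity read at 24 and 48 h; MIC = lowest concentration giving complete inhibition (clear medium), ≥3 independent experiments.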

CC[C@H](C)C[C@H](C)CCCCCCCCC(=O)N[C@H]1C[C@@H](O)[C@@H](NCCN)NC(=O)[C@@H]2[C@@H](O)CCN2C(=O)[C@H]([C@H](O)CCN)NC(=O)[C@H]([C@H](O)[C@@H](O)c2ccc(O)cc2)NC(=O)[C@@H]2C[C@@H](O)CN2C(=O)[C@H]([C@@H](C)O)NC1=O [caspofungin]
MIC: 50 µg/mL (≈ 45.7 µM)
